Read-outs that look alike come from different tables or passages of the source. Values belong to the compound of their own block, whether it stands above or below them.
Assays:
[1] = Carboplatin (platinum by ICP-MS) plasma pharmacokinetics in patients after belinostat and paclitaxel; assay type: in vivo, human; conditions: for AUCall / AUCinf / Cl / Cmax / T1/2 / Vss: mean±s.d.
Description: (§1) Blood samples for belinostat PK, when administered alone were taken pre-treatment, at the end of infusion and 5 min, 15, 30 min, 1 h, 2, 3 h, 3 h 15 min, 3 h 30 min, 4, 5, 6 h after infusion on days 1 and 3 of cycle 1. Samples for carboplatin or paclitaxel when administered after belinostat, were taken relative to the start of belinostat infusion at 3 h (pre-carboplatin or-paclitaxel), 3 h 15 min, 3 h 30 min, 4, 5 and 6 h in cycle 1 on day 3. In addition, samples were taken for BelCaP when administered together at 6 h 15 min, 6 h 30 min, 7, 8, 9 and 24 h after belinostat on day 3. Belinostat and paclitaxel levels were determined in lithium-heparinised plasma using validated solid-phase extraction high performance liquid chromatograpgy (HPLC)-tandem mass spectrometric detection (MS/MS) methods (Covance, Indianapolis, IN, USA). The lower limit of quantitation was 5 and 10 ng ml^−1 for belinostat and paclitaxel, respectively. Belinostat plasma concentrations were determined at Covance using a validated method involving solid-phase extraction, separation with acetic acid acetonitril gradient on reversed phase C18 silica and MS/MS using penta-deuterated belinostat as the internal standard. Belinostat and the internal standard were detected using negative ion electron spray with the transition from 317 to 143 and 322 to 143 m z^−1, respectively.
Human plasma samples were analysed for Pt from carboplatin by inductively coupled plasma-mass spectrometry after dilution with 0.01% Triton X-100 in 0.1% nitric acid. The samples were analysed without pre-digestion or extraction directly against matrix-matched standard solutions. Intensity, as counts per second from Pt, mass 195, was measured. Terbium, mass 159, was used as an internal standard. The results were calculated from the net intensity ratio of Pt to internal standard. The standard curve range was 2.00–1000 ng Pt ml^−1 in plasma. Samples above the calibration range were diluted using blank human plasma.
(§2) Plasma concentration–time curves of all three analytes were analysed by non-compartmental methods using WinNonlin (version 4.0.1 Pharsight Corp., Cary, NC, USA). For all analytes the AUC was estimated from the start of infusion by the logarithmic-linear trapezoidal rule and extrapolated to infinity using the estimated value of the slope of the terminal logarithmic-linear disposition phase. Analysis was carried out on the non-dose-normalised plasma concentration of carboplatin, as dosing had already been normalised per GFR using Calvert's formula ([Calvert et al, 1989]).

[2] = Paclitaxel plasma pharmacokinetics in patients after belinostat (LC-MS/MS, non-compartmental); assay type: in vivo, human
Description: as §1
Paclitaxel and the internal standard, cephalomannine, are extracted from human plasma by solid-phase extraction on a cyanopropyl solid-phase extraction cartridge. After eluting with the mobile phase, the eluent is directly analysed using liquid chromatography with MS/MS. The standard curve range for this assay is from 10.0 to 2000 ng ml^−1 for paclitaxel, using a plasma sample volume of 0.250 ml.
as §2

[3] = tested on: patients with solid tumours; conditions: ref Munster et al, cited from earlier work; for patients who responded: valproic acid with epirubicin, 2009
[4] = tested on: patients with advanced solid malignancies; set-up: method as in Ramalingam et al, 2007a; conditions: ref Ramalingam et al, 2007a, cited from earlier work
[5] = carboplatin equivalents from total platinum, target AUC 5 i.v. day 3 after belinostat 600 mg m^−2 and paclitaxel, 7 patients
[6] = carboplatin equivalents from total platinum, target AUC 5 i.v. day 3 after belinostat 800 mg m^−2 and paclitaxel, 3 patients
[7] = carboplatin equivalents from total platinum, target AUC 5 i.v. day 3 after belinostat 1000 mg m^−2 and paclitaxel, 7 patients
[8] = carboplatin equivalents, target AUC 5 i.v. day 3, Total Mean over all belinostat dose levels
[9] = human, plasma, iv, paclitaxel 175 mg m^−2 i.v. day 3 after belinostat 600 mg m^−2, 6 patients, mean±s.d.
[10] = human, plasma, iv, paclitaxel 175 mg m^−2 i.v. day 3 after belinostat 800 mg m^−2, 3 patients, mean±s.d.
[11] = human, plasma, iv, paclitaxel 175 mg m^−2 i.v. day 3 after belinostat 1000 mg m^−2, 7 patients, mean±s.d.
[12] = paclitaxel 175 mg m^−2 i.v. day 3 after belinostat 600 mg m^−2, 6 patients, mean±s.d.
[13] = paclitaxel 175 mg m^−2 i.v. day 3 after belinostat 800 mg m^−2, 3 patients, mean±s.d.
[14] = paclitaxel 175 mg m^−2 i.v. day 3 after belinostat 1000 mg m^−2, 7 patients, mean±s.d.
[15] = valproic acid combined with epirubicin, 2007
[16] = vorinostat with carboplatin and paclitaxel, 25 patients treated

SMILES: N.N.O=C([O-])C1(C(=O)[O-])CCC1.[Pt+2] [carboplatin]
- effect of concurrent administration on pharmacokinetics ([1]; carboplatin after belinostat): unaltered
- AUCall [1, 5]: 7.8 ± 1.4 mg·min/mL
- AUCinf [1, 5]: 8.8 ± 1.3 mg·min/mL
- Cl [1, 5]: 4.4 ± 0.9 L/h
- Cmax [1, 5]: 27400 ± 4000 ng/mL
- T1/2 [1, 5]: 7.8 ± 2.7 h
- Vss [1, 5]: 34.3 ± 16.1 L
- AUCall [1, 6]: 8.9 ± 2.1 mg·min/mL
- AUCinf [1, 6]: 9.7 ± 1.9 mg·min/mL
- Cl [1, 6]: 4.1 ± 0.5 L/h
- Cmax [1, 6]: 32800 ± 11700 ng/mL
- T1/2 [1, 6]: 5.4 ± 1.0 h
- Vss [1, 6]: 21.9 ± 7.6 L
- AUCall [1, 7]: 8.4 ± 1.0 mg·min/mL
- AUCinf [1, 7]: 9.3 ± 1.1 mg·min/mL
- Cl [1, 7]: 3.5 ± 0.8 L/h
- Cmax [1, 7]: 29600 ± 14000 ng/mL
- T1/2 [1, 7]: 6.0 ± 0.8 h
- Vss [1, 7]: 20.4 ± 3.5 L
- AUCall [1, 8]: 8.2 ± 1.4 mg·min/mL
- AUCinf [1, 8]: 9.2 ± 1.3 mg·min/mL
- Cl [1, 8]: 3.9 ± 0.8 L/h
- Cmax [1, 8]: 29200 ± 1000 ng/mL
- T1/2 [1, 8]: 6.6 ± 2.1 h
- Vss [1, 8]: 26.4 ± 12.5 L

- AUC [2, 9]: 14 ± 2.5 µM·h
- AUC(0-inf) [2, 9]: 14.7 ± 2.6 µM·h
- Cmax [2, 9]: 3.9 ± 0.7 µM
- half-life [2, 9]: 5.7 ± 0.5 h
- AUC [2, 10]: 12.8 ± 1.7 µM·h
- AUC(0-inf) [2, 10]: 13.3 ± 2 µM·h
- half-life [2, 10]: 5.5 ± 1.1 h
- AUC [2, 11]: 14.4 ± 3.8 µM·h
- AUC(0-inf) [2, 11]: 15 ± 4 µM·h
- half-life [2, 11]: 5.5 ± 0.6 h
- Cl [2, 12]: 14.3±2.2 l h^−1 m^−2
- Vss [2, 12]: 56.6±21.2 l m^−2
- Cl [2, 13]: 15.7±2.6 l h^−1 m^−2
- Vss [2, 13]: 53.0±3.0 l m^−2
- Cl [2, 14]: 14.8±4.9 l h^−1 m^−2
- Vss [2, 14]: 57.2±31.7 l m^−2
- effect of concurrent administration on pharmacokinetics ([2]; paclitaxel after belinostat): unaltered
SMILES: CC(=O)O[C@H]1C(=O)[C@@]2(C)[C@H]([C@H](OC(=O)c3ccccc3)[C@]3(O)C[C@H](OC(=O)[C@H](O)[C@@H](NC(=O)c4ccccc4)c4ccccc4)C(C)=C1C3(C)C)[C@]1(OC(C)=O)CO[C@@H]1C[C@@H]2O [paclitaxel]

SMILES: CCCC(CCC)C(=O)O [valproic acid]
- dose-limiting toxicities [3, 15]: neurological DLTs
- grade II–III QTc prolongation, patients [3, 15]: approximately 25%
- patients who responded ([3]; of 41 patients with a variety of solid tumours): 9
- patients who responded ([3]; phase II portion, breast cancer): 64%

SMILES: O=C(CCCCCCC(=O)Nc1ccccc1)NO [vorinostat]
- grade III/IV neutropenia, patients ([4]; vorinostat with carboplatin and paclitaxel at higher dose than present study): 50%
- patients with PR, head and neck cancer [4, 16]: 1
- patients with PR, non-small-cell lung cancer [4, 16]: 10

Reference: paper PMC2905291, “A phase I study of the safety and pharmacokinetics of the histone deacetylase inhibitor belinostat administered in combination with carboplatin and/or paclitaxel in patients with solid tumours” (British Journal of Cancer, 2010)
